According to PMC3756011, “Evaluation of Memory Enhancing Clinically Available Standardized Extract of Bacopa monniera on P-Glycoprotein and Cytochrome P450 3A in Sprague-Dawley Rats” (PLoS ONE, 2013):
Values belong to the compound of their own block, whether it stands above or below them.

Experiments:
[1] = Oral pharmacokinetics of carbamazepine and carbamazepine 10,11-epoxide with and without BM pre-treatment; format: in vivo, male Sprague-Dawley rat; conditions: for Cmax / AUC(0-∞) / MRT / CL/F / AUC(0-inf): Mean ± SD
Protocol: Samples were vigorously vortexed for five minutes and centrifuged at 12,000 rpm for 20 minutes at 4°C. Supernatant thus obtained were analysed using HPLC-UV method. […] Column efﬂuent was monitored at 286 nm. The mobile phase was a mixture of 10 mM ammonium acetate (pH 7.4) and acetonitrile (65∶35). Chromatography was performed at a ﬂow rate of 1.0 ml/min. Pharmacokinetic parameters of probe drugs in plasma were derived from plasma concentration-time profile of probe drugs by Non-Compartmental analysis using WinNonlin Ver 5.1 (Pharsight Corporation, Mountain Veiw, CA).

[2] = 2 hours after digoxin 0.2 mg/kg oral, BM pretreated vs vehicle
[3] = Oral pharmacokinetics of digoxin with and without BM pre-treatment; format: in vivo, male Sprague-Dawley rat; conditions: for AUC(0-inf) / CL/F / MRT / Vd/F / half-life / Cmax: male, Sprague-Dawley, rat, plasma, po, 0.2 mg/kg
Excerpt: Rats were divided in two groups (total 40 rats; 10 rats each group) for both probe drugs viz. control and BM pre-treated group.
Pharmacokinetic parameters of probe drugs in plasma were derived from plasma concentration-time profile of probe drugs by Non-Compartmental analysis using WinNonlin Ver 5.1 (Pharsight Corporation, Mountain Veiw, CA).

[4] = design: method as in PMID 15673597; conditions: rat vs human; cited from earlier work
Pgp = test system: Pgp; design: method as in PMID 11318771; conditions: earlier reports; cited from earlier work
[5] = BM pretreated rats (31 mg/kg/day 7 days), carbamazepine 50 mg/kg oral
[6] = vehicle pretreated rats, carbamazepine 50 mg/kg oral
[7] = BM pre-treated compared to vehicle treated rats
[8] = BM pre-treated vs vehicle treated rats, abstract
[9] = BM pretreated rats (31 mg/kg/day 7 days), digoxin 0.2 mg/kg oral
[10] = vehicle pretreated rats, digoxin 0.2 mg/kg oral
[11] = BM pretreated compared to vehicle pretreated rats

Cmax ([1]; BM pretreated rats (31 mg/kg/day 7 days), carbamazepine 50 mg/kg oral 24 h after last BM): 819 ± 170 ng/mL | AUC(0-∞) [1, 5]: 15100 ± 7360 ng·h/mL | MRT [1, 5]: 21.65 ± 7.69 h | AUC(0-∞) [1, 6]: 14680 ± 2900 ng·h/mL | CL/F [1, 6]: 3.31 ± 0.56 mL/h/kg | Cmax [1, 6]: 1370 ± 11 ng/mL | MRT [1, 6]: 10.05 ± 0.33 h
Compound: NC(=O)N1c2ccccc2C2OC2c2ccccc21 (stereo not drawn) [CBZ-E, carbamazepine 10,11-epoxide]

increase in tissue digoxin concentration in intestine ([2]; intestine): 1.3 fold | increase in tissue digoxin concentration in kidney ([2]; kidney): 1.3 fold | decrease in CL/F with BM pre-treatment [3, 7]: 27% | increase in AUC with BM pre-treatment [3, 7]: 37% | increase in Cmax with BM pre-treatment [3, 7]: 9% | increase in MRT with BM pre-treatment [3, 7]: 17% | increase in T1/2 with BM pre-treatment [3, 7]: 48% | increase in AUC following BM pre-treatment [3, 8]: 1.3 fold | AUC(0-inf) [3, 9]: 70.71 ± 0.351 ng·h/mL | CL/F [3, 9]: 3.53 mL/h/kg | MRT [3, 9]: 8.88 ± 1.28 h | Vd/F [3, 9]: 0.0221 ± 0.0103 L/kg | half-life [3, 9]: 4.33 ± 2.03 h | Cmax ([3]; BM pretreated rats (31 mg/kg/day 7 days), digoxin 0.2 mg/kg oral 24 h after last BM): 5.28 ± 0.205 ng/mL | AUC(0-inf) [3, 10]: 51.5 ± 6.1 ng·h/mL | CL/F [3, 10]: 4.88 mL/h/kg | Cmax [3, 10]: 4.82 ± 0.092 ng/mL | MRT [3, 10]: 7.56 ± 0.0147 h | Vd/F [3, 10]: 0.0208 ± 0.00471 L/kg | half-life [3, 10]: 2.92 ± 0.322 h
Compound: C[C@H]1O[C@@H](O[C@H]2[C@@H](O)C[C@H](O[C@H]3[C@@H](O)C[C@H](O[C@H]4CC[C@@]5(C)[C@H](CC[C@@H]6[C@@H]5C[C@@H](O)[C@]5(C)[C@@H](C7=CC(=O)OC7)CC[C@]65O)C4)O[C@@H]3C)O[C@@H]2C)C[C@H](O)[C@@H]1O [Digoxin, digoxin]

Compound: NC(=O)N1c2ccccc2C=Cc2ccccc21 [CBZ, carbamazepine]
metabolic clearance, rat higher compared to human [4]: 10 fold | Pgp substrate status (Pgp): not a Pgp substrate | increase in AUC following BM pre-treatment [1, 8]: 4 fold | increase in Cmax following BM pre-treatment [1, 8]: 1.8 fold | decrease in CL/F in BM pretreated rats [1, 11]: 3.8 times | increase in mean AUC in BM pretreated rats [1, 11]: 4 times | increase in mean Cmax in BM pretreated rats [1, 11]: 1.8 times | CL/F ([1]; male, Sprague-Dawley, rat, in vivo, po, 50 mg/kg, BM pretreated rats (31 mg/kg/day 7 days), carbamazepine 50 mg/kg oral, read-out: CL/F (converted)): 323 mL/h/kg | CL/F ([1]; male, Sprague-Dawley, rat, in vivo, po, 50 mg/kg, vehicle pretreated rats, carbamazepine 50 mg/kg oral, read-out: CL/F (converted)): 1250 mL/h/kg | Cmax ([1]; male, Sprague-Dawley, rat, plasma, po, 50 mg/kg, BM pretreated rats (31 mg/kg/day 7 days), carbamazepine 50 mg/kg oral 24 h after last BM, read-out: Cmax): 14400 ± 1220 ng/mL | AUC(0-inf) ([1]; male, Sprague-Dawley, rat, plasma, po, 50 mg/kg, BM pretreated rats (31 mg/kg/day 7 days), carbamazepine 50 mg/kg oral): 169000 ± 65600 ng·h/mL | MRT ([1]; male, Sprague-Dawley, rat, plasma, po, 50 mg/kg, BM pretreated rats (31 mg/kg/day 7 days), carbamazepine 50 mg/kg oral, read-out: MRT): 10.7 ± 6.57 h | AUC(0-inf) ([1]; male, Sprague-Dawley, rat, plasma, po, 50 mg/kg, vehicle pretreated rats, carbamazepine 50 mg/kg oral): 40400 ± 3890 ng·h/mL | Cmax ([1]; male, Sprague-Dawley, rat, plasma, po, 50 mg/kg, vehicle pretreated rats, carbamazepine 50 mg/kg oral, read-out: Cmax): 8170 ± 1460 ng/mL | MRT ([1]; male, Sprague-Dawley, rat, plasma, po, 50 mg/kg, vehicle pretreated rats, carbamazepine 50 mg/kg oral, read-out: MRT): 5.46 ± 1.2 h
